This note sets out measurements from US12357605B2, “Muscle building agent” (KANEKA CORPORATION, priority 2019, dated 2025).

The subject of this assay is muscle satellite cells. The assay can be described thus: Evaluation of muscle satellite cell activating effect (ratio of BrdU positive cells). To be noted: for Ratio of activated muscle satellite cells, Mean: 24 hours culture, BrdU positive cells / total cells, solvent control 41.3%; for muscle satellite cell activating effect: in comparison with the solvent control, result in words. It counts as cell-based, SD rat. On the procedure: The muscle satellite cells activation effect can be evaluated by, for example, the following in vitro test. Specifically, muscle satellite cells are isolated from an animal and cultured in a culture medium containing test sample for 24 hours. Then, bromodeoxyuridine (BrdU) is added thereto at the final concentration of 10 μM, and the mixture is incubated for 2 hours. Next, the muscle satellite cells are fixed at 4° C. for 10 minutes with ice-cooled methanol containing 0.1% H2O2 and are subjected to DNA denaturation treatment at 37° C. for 1 hour using 2 N hydrochloric acid, and BrdU positive cells are detected by using anti-BrdU antibody as a primary antibody, HRP-conjugated anti-mouse IgG antibody as a secondary antibody, and coloring with diaminobenzidine (DAB). The ratio of BrdU positive cells to the total number of cells is calculated as the ratio of activated muscle satellite cells. It is judged with respect to the ratio of activated muscle satellite cells of the muscle building agent according to the present invention that muscle satellite cells are activated in the case where a ratio of activated muscle satellite cells is increased by a treatment with a test substrate in comparison with a solvent control. An increase to a solvent control is preferably 2% or more, more preferably 3% or more and even more preferably 5% or more.
Muscle tissues were isolated from the upper hindlimb and back of 6-month old male SD rat (from Japan SLC). The muscle tissues were trimmed of adipose and connective tissue, minced, and treated with PBS containing 1.25 mg/mL protease (Sigma) at 37° C. for 1 hour. After muscle fiber fragments and tissue debris were removed by centrifugation, the cells were seeded on plates coated with polylysine (Sigma) and fibronectin (Sigma). After the cells were cultured in 5% CO2 atmosphere at 37° C. for 24 hours, muscle satellite cells were isolated by washing with PBS. DMEM (“Dulbecco's Modified Eagle Medium”, Thermo Fisher Scientific) containing 10% horse serum (Thermo Fisher Scientific) was used as a culture media. The culture media is hereinafter abbreviated as “10% HS-DMEM”.
The casuarinin prepared in Example 1 or the stachyurin prepared in Example 2 was dissolved in water and added in 10% HS-DMEM to prepare the 10% HS-DMEM containing casuarinin or stachyurin. The culture medium of the isolated muscle satellite cells were exchanged for the 10% HS-DMEM containing casuarinin or stachyurin, and the muscle satellite cells were cultured for 24 hours. Casuarinin concentrations were adjusted to 0.01 to 1.1 μM (13 to 1000 ng/mL), and stachyurin concentrations were adjusted to 0.09 to 0.4 μM (83 to 333 ng/mL). As a solvent control, 10% HS-DMEM was used.
Bromodeoxyuridine (BrdU, Sigma) was added to the culture medium at the final concentration of 10 μM, and the mixture was incubated for 2 hours. Then, the muscle satellite cells were fixed at 4° C. for 10 minutes with ice-cooled methanol containing 0.1% H2O2 and were further subjected to DNA denaturation treatment using 2 N hydrochloric acid at 37° C. for 1 hour, and BrdU positive cells were detected by using anti-BrdU antibody (Sigma) as a primary antibody, HRP-conjugated anti-mouse IgG antibody (Sigma) as a secondary antibody, and coloring with diaminobenzidine (DAB, Sigma). The ratio of BrdU positive cells to the total number of cells was calculated as the ratio of activated muscle satellite cells. The experiments were performed in 12 independent cell cultures in the case of the solvent control, and in 3 independent cultures in each concentration in the case of casuarinin or stachyurin. Data were expressed as the mean and standard deviation. The “*” in FIGS. 1 and 2 represents that the difference to the solvent control was statistically significant at p<0.05 by Dunnett's test. […]

As for `O=C(O[C@@H]1OC2COC(=O)c3cc(O)c(O)c(O)c3-c3c(cc(O)c(O)c3O)C(=O)O[C@H]2[C@@H]2OC(=O)c3cc(O)c(O)c(O)c3-c3c(cc(O)c(O)c3O)C(=O)OC12)c1cc(O)c(O)c(O)c1` (stereo partly drawn) [Casuarictin, casuarictin, reference compound], the “Ratio of activated muscle satellite cells, Mean” value (from here on “Ratio”) (100 ng/mL) amounted to 39.2%. Turning to `C[C@@H]1OC(Oc2c(-c3cc(O)c(O)c(O)c3)oc3cc(O)cc(O)c3c2=O)[C@H](O)[C@H](O)[C@H]1O` (stereo partly drawn) [Myricitrin, myricitrin, reference compound], under “100 ng/mL”, the “Ratio” value was found to be 41.8%. Turning to `Oc1cc(O)c2c(c1)O[C@@H](c1ccc(O)c(O)c1)[C@H](O)C2` [Catechin, catechin, reference compound], the “Ratio” value (100 ng/mL) stood at 42.1%. With `O=C(O[C@@H]1COC(=O)c2cc(O)c(O)c(O)c2-c2c(cc(O)c(O)c2O)C(=O)O[C@H]1[C@@H]1OC(=O)c2cc(O)c(O)c(O)c2-c2c(O)c(O)c(O)c3c2C(=O)O[C@H]1[C@H]3O)c1cc(O)c(O)c(O)c1` [Stachyurin, stachyurin], the “muscle satellite cell activating effect” value is listed as “significant muscle satellite cell activating effect”. Further, the “Ratio” value (0.09 μM (83 ng/mL)) is on record as 44.7%. Further, the “Ratio” value (0.4 μM (333 ng/mL)) is on record as 48.5%.

As to `O=C(O)c1cc(O)c(O)c(O)c1` [Gallic acid, gallic acid, reference compound], the “Ratio” value (100 ng/mL) came out at 37.8%. `O=C(O[C@@H]1COC(=O)c2cc(O)c(O)c(O)c2-c2c(cc(O)c(O)c2O)C(=O)O[C@H]1[C@@H]1OC(=O)c2cc(O)c(O)c(O)c2-c2c(O)c(O)c(O)c3c2C(=O)O[C@H]1C3O)c1cc(O)c(O)c(O)c1` (stereo partly drawn) [Casuarinin, casuarinin]: the “muscle satellite cell activating effect” value is reported as “significant muscle satellite cell activating effect”. Besides, the “Ratio” value (0.01 μM (13 ng/mL)) is reported as 43.3%. Also, the “Ratio” value (0.03 μM (25 ng/mL)) was determined as 44.9%. In addition, where the note is “0.05 μM (50 ng/mL)”, the “Ratio” value is given as 51.3%. Moreover, the “Ratio” value (100 ng/mL) is 50.8%. In addition, the “Ratio” value (0.3 μM (250 ng/mL)) is reported as 48.8%. Also, the “Ratio” value (1.1 μM (1000 ng/mL)) was 43.7%. On to `O=c1c(O[C@@H]2O[C@H](CO)[C@H](O)[C@H](O)[C@H]2O)c(-c2ccc(O)c(O)c2)oc2cc(O)cc(O)c12` [Hyperin, hyperin, reference compound], for which the “Ratio” value (100 ng/mL) is given as 38.2%. For the molecule `O=C1OC[C@H]2OC(=O)c3cc(O)c(O)c(O)c3-c3c(O)c(O)c(O)c4c3C(=O)O[C@H]([C@H]3OC(=O)c5c-4c(O)c(O)c(O)c5[C@H]3O)[C@@H]2OC(=O)c2cc(O)c(O)c(O)c2-c2c1cc(O)c(O)c2O` [Castalagin, castalagin, reference compound], the “Ratio” value (100 ng/mL) was determined as 39.4%. The same measure, in the same setting: to `C[C@@H]1O[C@@H](Oc2c(-c3ccc(O)c(O)c3)oc3cc(O)cc(O)c3c2=O)[C@H](O)[C@H](O)[C@H]1O` [Quercitrin, quercitrin, reference compound] belongs 40.0%. Regarding `O=c1oc2c(O)c(O)cc3c(=O)oc4c(O)c(O)cc1c4c23` [Ellagic acid, ellagic acid, reference compound], the “Ratio” value (100 ng/mL) came to 38.3%.
